In one series the test system is HK-2 cells. The series can be described thus: MTT cell viability of HK-2 cells exposed to iodinated radiocontrast media, with or without rhEpo. Type of series: cell-based, human. On the procedure: (§1) HK-2, a proximal tubular cell line derived from normal human kidney, and LLC-PK1, a proximal renal tubular cell line of porcine origin, were obtained from the American Type Culture Collection ATCC (Manassas, Va.). HK-2 cells were grown in DMEM media (GIBCO) supplemented with 10% FBS (Hyclone), 15 mM HEPES, 2 mM L-glutamine, 50 U/ml penicillin, 50 μg/ml streptomycin (GIBCO), 0.1 μg/ml hydrocortisone, 5 μg/ml insulin, and 5 μg/ml apotransferrin (Sigma, St. Louis, Mo.). LLC-PK1 cells were maintained in medium 199 (GIBCO) supplemented with 10% FBS and penicillin-streptomycin. For the planned experiments, cells were seeded on 24-well plates at a density of 10^4 cells/cm^2 and cultured at 37° C. for 24 hours.
(§2) […] The cell viability was assessed by the mitochondrial activity in reducing MTT to form […] using a commercially available kit (Cell Proliferation Kit, Roche, Penzberg, Germany). In brief, cells were incubated at 37° C. for 4 hours in 200 μl of serum-free, phenol red free medium containing 20 μl of the MTT labeling reagent. 200 μl of solubilization solution were added to each well and cells were incubated at 37° C. for 24 hours. Aliquots of the incubation medium were transferred to a 96-well microplate and absorbance was measured at 570 nm with the reference of 690 nm using a microplate reader (MRX-II, Dynex).

For the next series, the system named is caspase-3. The series can be described thus: Caspase-3 activity (Caspase-Glo 3/7) in LLC-PK1 cells after radiocontrast media. It is filed as cell-based, porcine. On the procedure: Activity of caspase-3 was measured by the degradation of subtype-specific peptide substrate after exposure of LLC-PK1 cells to iohexol or iodixanol. In brief, cells were seeded in 96-well plates and treated with radiocontrast media as described. After removal of the media, 100 μl of the Caspase-Glo 3/7 reagent (Promega, Madison, Wis.) were added to each well, and cells were incubated at room temperature for 1 hour. Luminescence of each sample was measured on a luminometer (Lumat LB9507, EGG Berthold). As a control for specificity, DEVD-CHO (Calbiochem, EMD Biosciences), a caspase-3 inhibitor, was added to appropriate wells during incubation in a final concentration of 50 μM. In parallel, cells were stained in wells with crystal violet and the absorption at 600 nm was measured. For each well, the luminometer data were normalized to the level of crystal violet absorption.

Series [1] in a line: MTT cell viability of HK-2 cells exposed to iodinated radiocontrast media, with or without rhEpo. It is filed as cell-based, human. Conditions: human, HK-2 cells (proximal tubular cell line), HK-2 cells, 100 mg iodine/mL contrast media, read-out: reduction of cell viability (MTT); for cytotoxicity at 1 h, 100 mg iodine/mL: 1-hour incubation; for cytotoxicity at 6 h, 100 mg iodine/mL: 6-hour incubation. On the procedure: as §1, §2

The subject of a further series is LLC-PK1 cells. Put plainly: MTT cell viability of LLC-PK1 cells exposed to iodinated radiocontrast media, with or without rhEpo or darbepoetin. Type of series: cell-based, porcine. As to conditions: LLC-PK1 cells (data not shown). On the procedure:
as §1
Cells were exposed to iodinated radiocontrast media (100 mg iodine/ml) for 6 hours at 37° C., then washed twice with Dulbecco PBS solution, and incubated in serum-free culture medium for 24 hours at 37° C. The cell viability was assessed by the mitochondrial activity in reducing MTT to form […] using a commercially available kit (Cell Proliferation Kit, Roche, Penzberg, Germany). […] Aliquots of the incubation medium were transferred to a 96-well microplate and absorbance was measured at 570 nm with the reference of 690 nm using a microplate reader (MRX-II, Dynex).

The conditions of series [2]: patients with chronic renal failure; cited from earlier work.
The mark [3] stands for this setting: renal tubular epithelial cells, co-treatment, cell line not given.

For “rhEpo: Recombinant human erythropoietin, a widely available agent for the treatment of anemia; Epoetin alfa (EPOGEN) purchased from Amgen”, in the series with HK-2 cells (HK-2 cells, 200 U/ml rhEpo, iodixanol 100 mg iodine/ml), the “protective effect against cytotoxic effect of iodixanol” value is “similarly protective”. For the same molecule, the “protective effect against cellular toxicity of iohexol” value with HK-2 cells (HK-2 cells, 6 hours iohexol, three concentrations of rhEpo (0-400 U/ml), dose dependent) is listed as “partially reversed”. Also, in the series on HK-2 cells (HK-2 cells, iohexol), the “concentration providing ceiling of protective effect” value was found to be 200 U/ml. In the series on HK-2 cells (setting [3]), the “reduction of toxicity of iodixanol (MTT cell viability assay)” value was found to be 20% and the “reduction of toxicity of iohexol (MTT cell viability assay)” value is on record as 20%. Further, in the series on caspase-3 (LLC-PK1 cells, co-treatment, rhEpo 200 U/ml), the “effect on iohexol-induced caspase-3 activation” value is listed as “suppressed”. Also, the “reduction of the induction of caspase-3 activation by iohexol” value in the series on caspase-3 (co-treatment of cells with rhEpo) turned out to be 20%.

Turning to `CC(=O)N(CC(O)CN(C(C)=O)c1c(I)c(C(=O)NCC(O)CO)c(I)c(C(=O)NCC(O)CO)c1I)c1c(I)c(C(=O)NCC(O)CO)c(I)c(C(=O)NCC(O)CO)c1I` (stereo not shown) [iodixanol], in series [1], the cytotoxicity at 1 h, 100 mg iodine/mL is 33% and the cytotoxicity at 6 h, 100 mg iodine/mL is 48%. Further, in the series on LLC-PK1 cells, the “cell damage by radio-contrast agent” value is given as “marked cell damage”. Moreover, the “effect on caspase-3 activity” value in the series on caspase-3 (LLC-PK1 cells, 100 mg iodine/ml) is “induced an increase”.

Consider DEVD-CHO, for which the “effect on radiocontrast-induced increase in caspase-3 activity” value in the series with caspase-3 (LLC-PK1 cells, iohexol or iodixanol, co-treatment with inhibitor 50 μM) is listed as “abrogated”.

`CC(=O)Nc1c(I)c(NC(C)=O)c(I)c(C(=O)O)c1I` [diatrizoate, 3,5-Diacetamido-2,4,6-triiodobenzoic acid]: in series [1], the cytotoxicity at 1 h, 100 mg iodine/mL came to 44% and the cytotoxicity at 6 h, 100 mg iodine/mL worked out at 99%. In addition, in the series on HK-2 cells (HK-2 cells, 6-hour incubation), the “toxic effects on renal tubular cells, comparison between contrast media” value is given as “more toxicity”.

For the molecule `C[C@H](O)C(=O)Nc1c(I)c(C(=O)NC(CO)CO)c(I)c(C(=O)NC(CO)CO)c1I` [iopamidol], in series [2], the elimination half-life result is “about 70 hours”.

For the molecule `CC(=O)N(CC(O)CO)c1c(I)c(C(=O)NCC(O)CO)c(I)c(C(=O)NCC(O)CO)c1I` (stereo not shown) [iohexol], in series [1], the cytotoxicity at 1 h, 100 mg iodine/mL stood at 36% and the cytotoxicity at 6 h, 100 mg iodine/mL came to 60%. Moreover, the “cell damage by radio-contrast agent” value in the series on LLC-PK1 cells is “marked cell damage”.
